What was measured:
5-HT1B = target: T1, 5-HT1B (Rattus norvegicus, UniProt P28564); assay: CEREP binding panel; details: antagonist radioligand, read-out: % Inhibition of Control Specific Binding
T1 construct: purchased Millipore KinaseProfiler (kinases); Cerep (receptors and ion channels)

ITK = target: T2, ITK (Homo sapiens, UniProt Q08881); assay: Millipore kinase panel; type: biochemical; details: read-out: % Control
T2 construct: purchased Millipore KinaseProfiler (kinases); Cerep (receptors and ion channels)

dopamine transporter (h) = target: T3, dopamine transporter (h) (Homo sapiens, UniProt Q01959); assay: CEREP binding panel; details: antagonist radioligand, read-out: % Inhibition of Control Specific Binding
T3 construct: purchased Millipore KinaseProfiler (kinases); Cerep (receptors and ion channels)

FGFR1 = target: T4, FGFR1 (Homo sapiens, UniProt P11362); assay: Millipore kinase panel; type: biochemical; details: read-out: % Control
T4 construct: purchased Millipore KinaseProfiler (kinases); Cerep (receptors and ion channels)

PIM-3 = target: T5, PIM-3 (Homo sapiens, UniProt Q86V86); assay: Millipore kinase panel; type: biochemical; details: read-out: % Control
T5 construct: purchased Millipore KinaseProfiler (kinases); Cerep (receptors and ion channels)

NLK = target: T6, NLK (Homo sapiens, UniProt Q9UBE8); assay: Millipore kinase panel; type: biochemical; details: read-out: % Control
T6 construct: purchased Millipore KinaseProfiler (kinases); Cerep (receptors and ion channels)

FES = target: T7, FES (Homo sapiens, UniProt P07332); assay: Millipore kinase panel; type: biochemical; details: read-out: % Control
T7 construct: purchased Millipore KinaseProfiler (kinases); Cerep (receptors and ion channels)

PRKX = target: T8, PRKX (Homo sapiens, UniProt P51817); assay: Millipore kinase panel; type: biochemical; details: read-out: % Control
T8 construct: purchased Millipore KinaseProfiler (kinases); Cerep (receptors and ion channels)

STK33 = target: T9, STK33 (Homo sapiens, UniProt Q9BYT3); assay: Millipore kinase panel; type: biochemical; details: read-out: % Control
T9 construct: purchased Millipore KinaseProfiler (kinases); Cerep (receptors and ion channels)

PKCZETA = target: T10, PKCZETA (Homo sapiens, UniProt Q05513); assay: Millipore kinase panel; type: biochemical; details: read-out: % Control
T10 construct: purchased Millipore KinaseProfiler (kinases); Cerep (receptors and ion channels)

PDK1 = target: T11, PDK1 (Homo sapiens, UniProt O15530); assay: Millipore kinase panel; type: biochemical; details: read-out: % Control
T11 construct: purchased Millipore KinaseProfiler (kinases); Cerep (receptors and ion channels)

FLT4 = target: T12, FLT4 (Homo sapiens, UniProt P35916); assay: Millipore kinase panel; type: biochemical; details: read-out: % Control
T12 construct: purchased Millipore KinaseProfiler (kinases); Cerep (receptors and ion channels)

ZIPK = target: T13, ZIPK (Homo sapiens, UniProt O43293); assay: Millipore kinase panel; type: biochemical; details: read-out: % Control
T13 construct: purchased Millipore KinaseProfiler (kinases); Cerep (receptors and ion channels)

JAK2 = target: T14, JAK2 (Homo sapiens, UniProt O60674); assay: Millipore kinase panel; type: biochemical; details: read-out: % Control
T14 construct: purchased Millipore KinaseProfiler (kinases); Cerep (receptors and ion channels)

D1 (h) = target: T15, D1 (h) (Homo sapiens, UniProt P21728); assay: CEREP binding panel; details: antagonist radioligand, read-out: % Inhibition of Control Specific Binding
T15 construct: purchased Millipore KinaseProfiler (kinases); Cerep (receptors and ion channels)

PKD2 = target: T16, PKD2 (Homo sapiens, UniProt Q9BZL6); assay: Millipore kinase panel; type: biochemical; details: read-out: % Control
T16 construct: purchased Millipore KinaseProfiler (kinases); Cerep (receptors and ion channels)

PDGFRBETA = target: T17, PDGFRBETA (Homo sapiens, UniProt P09619); assay: Millipore kinase panel; type: biochemical; details: read-out: % Control
T17 construct: purchased Millipore KinaseProfiler (kinases); Cerep (receptors and ion channels)

PAK5 = target: T18, PAK5 (Homo sapiens, UniProt Q9P286); assay: Millipore kinase panel; type: biochemical; details: read-out: % Control
T18 construct: purchased Millipore KinaseProfiler (kinases); Cerep (receptors and ion channels)

IRR = target: T19, IRR (Homo sapiens, UniProt P14616); assay: Millipore kinase panel; type: biochemical; details: read-out: % Control
T19 construct: purchased Millipore KinaseProfiler (kinases); Cerep (receptors and ion channels)

ETA (h) = target: T20, ETA (h) (Homo sapiens, UniProt P25101); assay: CEREP binding panel; details: agonist radioligand, read-out: % Inhibition of Control Specific Binding
T20 construct: purchased Millipore KinaseProfiler (kinases); Cerep (receptors and ion channels)

PIM-2 = target: T21, PIM-2 (Homo sapiens, UniProt Q9P1W9); assay: Millipore kinase panel; type: biochemical; details: read-out: % Control
T21 construct: purchased Millipore KinaseProfiler (kinases); Cerep (receptors and ion channels)

PI3 KINASE (P110A/P85A) = assay: Millipore kinase panel; type: biochemical; details: 1 μM, ATP at Km
RON = target: T22, RON (Homo sapiens, UniProt Q04912); assay: Millipore kinase panel; type: biochemical; details: read-out: % Control
T22 construct: purchased Millipore KinaseProfiler (kinases); Cerep (receptors and ion channels)

M3 (h) = target: T23, M3 (h) (Homo sapiens, UniProt P20309); assay: CEREP binding panel; details: antagonist radioligand, read-out: % Inhibition of Control Specific Binding
T23 construct: purchased Millipore KinaseProfiler (kinases); Cerep (receptors and ion channels)

CAMKIIBETA = target: T24, CAMKIIBETA (Homo sapiens, UniProt Q13554); assay: Millipore kinase panel; type: biochemical; details: read-out: % Control
T24 construct: purchased Millipore KinaseProfiler (kinases); Cerep (receptors and ion channels)

SAPK2B = target: T25, SAPK2B (Homo sapiens, UniProt Q15759); assay: Millipore kinase panel; type: biochemical; details: read-out: % Control
T25 construct: purchased Millipore KinaseProfiler (kinases); Cerep (receptors and ion channels)

PRKAA1 = target: T26, PRKAA1 (Homo sapiens, UniProt Q13131); assay: Millipore kinase panel; type: biochemical; details: read-out: % Control
T26 construct: purchased Millipore KinaseProfiler (kinases); Cerep (receptors and ion channels)

ALK = target: T27, ALK (Homo sapiens, UniProt Q9UM73); assay: Millipore kinase panel; type: biochemical; details: read-out: % Control
T27 construct: purchased Millipore KinaseProfiler (kinases); Cerep (receptors and ion channels)

FGFR3 = target: T28, FGFR3 (Homo sapiens, UniProt P22607); assay: Millipore kinase panel; type: biochemical; details: read-out: % Control
T28 construct: purchased Millipore KinaseProfiler (kinases); Cerep (receptors and ion channels)

TBK1 = target: T29, TBK1 (Homo sapiens, UniProt Q9UHD2); assay: Millipore kinase panel; type: biochemical; details: read-out: % Control
T29 construct: purchased Millipore KinaseProfiler (kinases); Cerep (receptors and ion channels)

JAK3 = target: T30, JAK3 (Homo sapiens, UniProt P52333); assay: Millipore kinase panel; type: biochemical; details: read-out: % Control
T30 construct: purchased Millipore KinaseProfiler (kinases); Cerep (receptors and ion channels)

PKCMU = target: T31, PKCMU (Homo sapiens, UniProt Q15139); assay: Millipore kinase panel; type: biochemical; details: read-out: % Control
T31 construct: purchased Millipore KinaseProfiler (kinases); Cerep (receptors and ion channels)

D2S (h) = target: T32, D2S (h) (Homo sapiens, UniProt P14416); assay: CEREP binding panel; details: antagonist radioligand, read-out: % Inhibition of Control Specific Binding
T32 construct: purchased Millipore KinaseProfiler (kinases); Cerep (receptors and ion channels)

BRSK2 = target: T33, BRSK2 (Homo sapiens, UniProt Q8IWQ3); assay: Millipore kinase panel; type: biochemical; details: read-out: % Control
T33 construct: purchased Millipore KinaseProfiler (kinases); Cerep (receptors and ion channels)

DAPK1 = target: T34, DAPK1 (Homo sapiens, UniProt P53355); assay: Millipore kinase panel; type: biochemical; details: read-out: % Control
T34 construct: purchased Millipore KinaseProfiler (kinases); Cerep (receptors and ion channels)

A2A (h) = target: T35, A2A (h) (Homo sapiens, UniProt P29274); assay: CEREP binding panel; details: agonist radioligand, read-out: % Inhibition of Control Specific Binding
T35 construct: purchased Millipore KinaseProfiler (kinases); Cerep (receptors and ion channels)

A1 (h) = target: T36, A1 (h) (Homo sapiens, UniProt P30542); assay: CEREP binding panel; details: antagonist radioligand, read-out: % Inhibition of Control Specific Binding
T36 construct: purchased Millipore KinaseProfiler (kinases); Cerep (receptors and ion channels)

sst (non-selective) = assay: CEREP binding panel; details: 10 μM, agonist radioligand
MLCK = target: T37, MLCK (Homo sapiens, UniProt Q9H1R3); assay: Millipore kinase panel; type: biochemical; details: read-out: % Control
T37 construct: purchased Millipore KinaseProfiler (kinases); Cerep (receptors and ion channels)

CRAF = target: T38, CRAF (Homo sapiens, UniProt P04049); assay: Millipore kinase panel; type: biochemical; details: read-out: % Control
T38 construct: purchased Millipore KinaseProfiler (kinases); Cerep (receptors and ion channels)

DMPK = target: T39, DMPK (Homo sapiens, UniProt Q09013); assay: Millipore kinase panel; type: biochemical; details: read-out: % Control
T39 construct: purchased Millipore KinaseProfiler (kinases); Cerep (receptors and ion channels)

5-HT2B (h) = target: T40, 5-HT2B (h) (Homo sapiens, UniProt P41595); assay: CEREP binding panel; details: agonist radioligand, read-out: % Inhibition of Control Specific Binding
T40 construct: purchased Millipore KinaseProfiler (kinases); Cerep (receptors and ion channels)

5-HT transporter (h) = target: T41, 5-HT transporter (h) (Homo sapiens, UniProt P31645); assay: CEREP binding panel; details: antagonist radioligand, read-out: % Inhibition of Control Specific Binding
T41 construct: purchased Millipore KinaseProfiler (kinases); Cerep (receptors and ion channels)

HIPK2 = target: T42, HIPK2 (Homo sapiens, UniProt Q9H2X6); assay: Millipore kinase panel; type: biochemical; details: read-out: % Control
T42 construct: purchased Millipore KinaseProfiler (kinases); Cerep (receptors and ion channels)

T11 sequence (O15530 whole entry): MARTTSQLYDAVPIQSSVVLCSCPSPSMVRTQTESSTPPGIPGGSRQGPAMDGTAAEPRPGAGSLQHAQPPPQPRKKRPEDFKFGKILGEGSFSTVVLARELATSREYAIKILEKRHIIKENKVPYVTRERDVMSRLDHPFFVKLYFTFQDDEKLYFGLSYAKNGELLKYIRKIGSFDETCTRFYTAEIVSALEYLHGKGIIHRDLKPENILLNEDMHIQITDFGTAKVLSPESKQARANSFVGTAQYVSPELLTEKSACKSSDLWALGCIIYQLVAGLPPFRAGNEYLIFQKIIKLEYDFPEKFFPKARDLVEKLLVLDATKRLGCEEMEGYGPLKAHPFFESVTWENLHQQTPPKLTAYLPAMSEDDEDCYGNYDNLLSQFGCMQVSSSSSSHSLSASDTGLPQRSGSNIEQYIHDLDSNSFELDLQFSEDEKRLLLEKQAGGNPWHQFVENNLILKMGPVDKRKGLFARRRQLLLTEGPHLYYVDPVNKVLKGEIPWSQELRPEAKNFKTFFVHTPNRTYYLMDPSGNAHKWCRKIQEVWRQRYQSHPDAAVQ
T18 sequence (Q9P286 whole entry): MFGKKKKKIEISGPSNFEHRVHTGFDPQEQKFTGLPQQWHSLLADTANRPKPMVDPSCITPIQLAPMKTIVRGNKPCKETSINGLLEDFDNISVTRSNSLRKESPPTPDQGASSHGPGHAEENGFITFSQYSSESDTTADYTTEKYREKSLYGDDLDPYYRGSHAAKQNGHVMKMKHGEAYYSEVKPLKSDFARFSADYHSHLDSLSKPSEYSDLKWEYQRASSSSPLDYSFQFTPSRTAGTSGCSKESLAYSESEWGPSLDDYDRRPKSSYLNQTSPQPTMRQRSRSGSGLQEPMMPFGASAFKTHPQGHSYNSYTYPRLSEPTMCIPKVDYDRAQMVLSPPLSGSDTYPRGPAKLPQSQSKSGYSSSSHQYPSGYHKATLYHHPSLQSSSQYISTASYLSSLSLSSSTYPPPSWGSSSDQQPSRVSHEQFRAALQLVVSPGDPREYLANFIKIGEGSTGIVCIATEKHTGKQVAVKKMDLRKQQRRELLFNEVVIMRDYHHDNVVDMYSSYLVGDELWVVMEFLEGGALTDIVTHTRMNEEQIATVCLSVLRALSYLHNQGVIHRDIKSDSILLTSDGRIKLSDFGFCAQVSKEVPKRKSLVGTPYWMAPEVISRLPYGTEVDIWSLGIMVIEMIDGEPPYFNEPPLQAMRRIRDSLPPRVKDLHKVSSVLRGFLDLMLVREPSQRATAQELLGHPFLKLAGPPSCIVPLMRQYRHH
T10 sequence (Q05513 whole entry): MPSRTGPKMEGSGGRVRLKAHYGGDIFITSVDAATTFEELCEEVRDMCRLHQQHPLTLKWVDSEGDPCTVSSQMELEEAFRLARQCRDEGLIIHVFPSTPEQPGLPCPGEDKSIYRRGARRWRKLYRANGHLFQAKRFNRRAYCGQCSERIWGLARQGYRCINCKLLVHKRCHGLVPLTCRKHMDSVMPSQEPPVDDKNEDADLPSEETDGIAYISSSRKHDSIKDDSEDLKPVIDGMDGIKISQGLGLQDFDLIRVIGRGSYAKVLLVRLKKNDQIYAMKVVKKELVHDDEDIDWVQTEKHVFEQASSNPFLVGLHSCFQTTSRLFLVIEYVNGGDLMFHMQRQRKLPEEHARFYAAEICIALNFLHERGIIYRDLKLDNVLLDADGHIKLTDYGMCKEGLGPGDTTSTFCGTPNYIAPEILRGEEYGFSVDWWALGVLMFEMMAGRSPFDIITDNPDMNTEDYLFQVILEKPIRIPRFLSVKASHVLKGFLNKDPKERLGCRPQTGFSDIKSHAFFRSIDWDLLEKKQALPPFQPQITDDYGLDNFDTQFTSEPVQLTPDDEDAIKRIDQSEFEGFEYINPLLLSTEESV
T28 sequence (P22607 23-806): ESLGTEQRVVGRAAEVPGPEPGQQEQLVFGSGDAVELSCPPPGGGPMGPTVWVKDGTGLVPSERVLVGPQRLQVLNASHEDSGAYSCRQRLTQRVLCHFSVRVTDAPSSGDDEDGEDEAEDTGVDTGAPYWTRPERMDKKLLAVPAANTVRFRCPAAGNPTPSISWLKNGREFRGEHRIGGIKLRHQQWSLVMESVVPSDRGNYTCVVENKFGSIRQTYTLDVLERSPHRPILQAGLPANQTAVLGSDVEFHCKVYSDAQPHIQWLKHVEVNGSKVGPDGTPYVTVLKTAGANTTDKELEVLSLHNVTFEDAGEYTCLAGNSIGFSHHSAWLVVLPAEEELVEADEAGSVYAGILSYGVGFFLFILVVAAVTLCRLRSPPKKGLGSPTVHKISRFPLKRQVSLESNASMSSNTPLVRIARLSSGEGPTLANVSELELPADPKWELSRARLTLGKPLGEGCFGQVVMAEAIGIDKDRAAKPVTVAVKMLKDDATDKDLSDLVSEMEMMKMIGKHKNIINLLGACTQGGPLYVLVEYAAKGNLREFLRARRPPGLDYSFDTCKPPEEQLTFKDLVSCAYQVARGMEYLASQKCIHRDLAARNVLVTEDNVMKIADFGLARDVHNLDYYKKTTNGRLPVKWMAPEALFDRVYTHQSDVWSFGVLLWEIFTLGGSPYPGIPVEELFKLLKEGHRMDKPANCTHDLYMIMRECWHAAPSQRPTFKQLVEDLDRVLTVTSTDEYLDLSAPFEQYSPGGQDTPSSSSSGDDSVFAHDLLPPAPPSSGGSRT
T40 sequence (P41595 whole entry): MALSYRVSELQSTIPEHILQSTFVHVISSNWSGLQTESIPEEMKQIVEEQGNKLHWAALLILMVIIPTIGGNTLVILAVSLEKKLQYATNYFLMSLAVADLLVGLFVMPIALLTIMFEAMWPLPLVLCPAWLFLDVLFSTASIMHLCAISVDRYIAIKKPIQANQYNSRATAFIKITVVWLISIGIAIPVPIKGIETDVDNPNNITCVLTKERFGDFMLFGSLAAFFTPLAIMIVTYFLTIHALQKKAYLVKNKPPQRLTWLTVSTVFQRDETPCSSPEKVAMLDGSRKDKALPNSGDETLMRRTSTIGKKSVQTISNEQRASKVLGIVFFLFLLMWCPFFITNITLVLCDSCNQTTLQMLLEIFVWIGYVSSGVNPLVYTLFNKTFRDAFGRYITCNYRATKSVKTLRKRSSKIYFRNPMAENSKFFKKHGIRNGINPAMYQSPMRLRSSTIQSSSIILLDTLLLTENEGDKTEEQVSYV
T2 sequence (Q08881 whole entry): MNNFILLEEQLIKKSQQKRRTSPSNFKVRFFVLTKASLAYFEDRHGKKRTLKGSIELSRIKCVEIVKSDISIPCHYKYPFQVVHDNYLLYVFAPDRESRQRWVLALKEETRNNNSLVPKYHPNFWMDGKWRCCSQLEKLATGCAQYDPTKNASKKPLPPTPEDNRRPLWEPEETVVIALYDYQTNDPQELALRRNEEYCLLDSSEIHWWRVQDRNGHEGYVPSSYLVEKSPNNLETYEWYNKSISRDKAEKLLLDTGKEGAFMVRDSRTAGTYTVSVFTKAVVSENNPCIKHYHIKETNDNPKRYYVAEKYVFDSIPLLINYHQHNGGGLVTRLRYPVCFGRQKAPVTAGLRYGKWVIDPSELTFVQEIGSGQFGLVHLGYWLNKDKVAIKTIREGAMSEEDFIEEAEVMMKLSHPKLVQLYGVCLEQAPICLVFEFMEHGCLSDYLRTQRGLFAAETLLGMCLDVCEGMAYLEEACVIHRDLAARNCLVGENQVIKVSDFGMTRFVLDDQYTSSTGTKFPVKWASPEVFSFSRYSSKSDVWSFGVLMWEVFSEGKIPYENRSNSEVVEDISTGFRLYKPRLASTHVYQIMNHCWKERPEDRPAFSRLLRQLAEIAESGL
T35 sequence (P29274 whole entry): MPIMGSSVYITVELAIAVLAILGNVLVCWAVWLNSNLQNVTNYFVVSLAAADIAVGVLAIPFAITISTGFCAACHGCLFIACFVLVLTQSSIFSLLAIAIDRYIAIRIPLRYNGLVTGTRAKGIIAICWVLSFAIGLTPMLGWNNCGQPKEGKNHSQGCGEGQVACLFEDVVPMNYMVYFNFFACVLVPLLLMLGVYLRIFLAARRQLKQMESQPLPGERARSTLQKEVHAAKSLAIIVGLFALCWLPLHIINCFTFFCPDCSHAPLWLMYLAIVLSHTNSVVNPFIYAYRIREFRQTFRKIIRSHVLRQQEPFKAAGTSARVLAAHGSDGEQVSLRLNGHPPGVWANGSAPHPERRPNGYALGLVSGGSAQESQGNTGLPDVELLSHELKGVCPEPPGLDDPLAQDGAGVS
T16 sequence (Q9BZL6 whole entry): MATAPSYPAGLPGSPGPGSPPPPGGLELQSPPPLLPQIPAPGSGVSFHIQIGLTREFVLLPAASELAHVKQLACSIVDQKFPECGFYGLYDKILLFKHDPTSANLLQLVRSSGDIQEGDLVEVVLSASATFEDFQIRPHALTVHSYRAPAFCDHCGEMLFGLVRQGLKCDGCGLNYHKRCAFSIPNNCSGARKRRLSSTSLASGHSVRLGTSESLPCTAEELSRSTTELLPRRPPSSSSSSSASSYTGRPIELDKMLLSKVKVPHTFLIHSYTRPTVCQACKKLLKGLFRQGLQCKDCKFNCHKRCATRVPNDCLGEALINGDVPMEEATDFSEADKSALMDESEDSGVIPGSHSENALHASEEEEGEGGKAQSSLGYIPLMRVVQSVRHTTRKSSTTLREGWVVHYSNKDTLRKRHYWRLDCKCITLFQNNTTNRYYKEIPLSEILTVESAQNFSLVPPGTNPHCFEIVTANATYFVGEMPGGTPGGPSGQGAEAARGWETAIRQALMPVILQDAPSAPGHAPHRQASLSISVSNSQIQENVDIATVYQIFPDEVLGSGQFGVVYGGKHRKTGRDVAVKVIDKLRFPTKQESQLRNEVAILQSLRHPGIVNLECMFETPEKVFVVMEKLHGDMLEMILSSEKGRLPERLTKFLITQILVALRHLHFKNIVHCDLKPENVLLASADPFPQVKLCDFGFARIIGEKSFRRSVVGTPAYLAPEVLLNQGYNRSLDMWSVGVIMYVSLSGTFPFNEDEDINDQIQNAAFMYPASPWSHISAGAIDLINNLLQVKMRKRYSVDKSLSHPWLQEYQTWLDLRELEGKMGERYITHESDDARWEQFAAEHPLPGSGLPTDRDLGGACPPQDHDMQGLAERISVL

SMILES: O=C1NCCC12CCN(c1c(Cl)cncc1-c1ccc(N3CCOCC3)cc1)CC2 [Compound 44, 8-(3-Chloro-5-(4-morpholin-4-ylphenyl)pyridin-4-yl)-2,8-diazaspiro[4.5]decan-1-one]
- inhibition at 10 µM (5-HT1B): -29%
- remaining activity at 1 µM (ITK): 16%
- inhibition at 10 µM (dopamine transporter (h)): -13%
- remaining activity at 1 µM (FGFR1): 13%
- remaining activity at 1 µM (PIM-3): 5%
- remaining activity at 1 µM (NLK): 17%
- remaining activity at 1 µM (FES): 14%
- remaining activity at 1 µM (PRKX): 1%
- remaining activity at 1 µM (STK33): 4%
- remaining activity at 1 µM (PKCZETA): 5%
- remaining activity at 1 µM (PDK1): 3%
- remaining activity at 1 µM (FLT4): -5%
- remaining activity at 1 µM (ZIPK): -10%
- remaining activity at 1 µM (JAK2): 4%
- inhibition at 10 µM (D1 (h)): 2%
- remaining activity at 1 µM (PKD2): 0%
- remaining activity at 1 µM (PDGFRBETA): 13%
- remaining activity at 1 µM (PAK5): 8%
- remaining activity at 1 µM (IRR): 1%
- inhibition at 10 µM (ETA (h)): -3%
- remaining activity at 1 µM (PIM-2): 7%
- % Control (PI3 KINASE (P110A/P85A)): 1%
- remaining activity at 1 µM (RON): 13%
- inhibition at 10 µM (M3 (h)): 47%
- remaining activity at 1 µM (CAMKIIBETA): 0%
- remaining activity at 1 µM (SAPK2B): 4%
- remaining activity at 1 µM (PRKAA1): 15%
- remaining activity at 1 µM (ALK): -6%
- remaining activity at 1 µM (FGFR3): 10%
- remaining activity at 1 µM (TBK1): 5%
- remaining activity at 1 µM (JAK3): -4%
- remaining activity at 1 µM (PKCMU): -22%
- inhibition at 10 µM (D2S (h)): 9%
- remaining activity at 1 µM (BRSK2): 14%
- remaining activity at 1 µM (DAPK1): 0%
- inhibition at 10 µM (A2A (h)): 4%
- inhibition at 10 µM (A1 (h)): -11%
- % Inhibition of Control Specific Binding (sst (non-selective)): -16%
- remaining activity at 1 µM (MLCK): 1%
- remaining activity at 1 µM (CRAF): -1%
- remaining activity at 1 µM (DMPK): -7%
- inhibition at 10 µM (5-HT2B (h)): -4%
- inhibition at 10 µM (5-HT transporter (h)): 17%
- remaining activity at 1 µM (HIPK2): 2%
